According to patent US20250129140A1, “ANTI-HCMV ANTIBODIES AND ANTIGEN-BINDING FRAGMENTS THEREOF” (ICAHN SCHOOL OF MEDICINE AT MOUNT SINAI, priority 2021, published 2025):

Test system: CMV TB40/E infected fibroblasts
Assay: SCID mouse gelfoam implant model of CMV proliferation
Assay type: in vivo, SCID mice
Settings: fully human mAbs 4 or 18 mg/kg, ganciclovir 50 mg/kg; i.p. every three days; day ten; versus isotype control
Description: At day ten post-implantation, the cells were released from the gelfoam and DNA extracted from the cells was subjected to qPCR for the HCMV UL123 and β-actin genes. The relative CMV levels cells were determined from Ct values of qPCR analysis (in triplicate) from cells collected from three mice/treatment. Statistical tests were performed using ordinary one-way ANOVA with comparisons to isotype treated cells as a control and a Dunnett's post-test; **, p<0.01; ***, p<0.001; ****, p<0.0001.
The gelfoam was implanted subcutaneously in three mice per group. […] Treatments were administrated every three days for nine days. At day ten post-implant, the gelfoam was removed and cells were released from the gel foam by collagenase treatment. The total DNA was harvest from the cells, quantified, and subjected to qPCR for UL123 (CMV gene) and b-actin (housekeeping geen) using SYBR green to evaluate virus proliferation. The qPCR analysis was performed in triplicate from three animals to determine the Ct values for UL123 and b-actin to calculate the relative levels of CMV DNA from the gelfoam samples.

Nc1nc(O)c2ncn(COC(CO)CO)c2n1 [ganciclovir, reference compound]
CMV DNA levels (UL123 relative to β-actin, qPCR): effective at decreasing CMV DNA levels
